Data reported in patent US12622910B2, “Inhibitors of Bruton's tyrosine kinase and methods of their use” (Janssen Pharmaceutica NV, priority 2021, dated 2026).

How the values were obtained:
CB2 (h) = CB2 (h) (Homo sapiens, UniProt P34972); assay: Receptor panel, Study 2; type: binding
Protocol: (§1) RESULTS AND DISCUSSION—Selectivity—The compound of Formula (III) was evaluated in three selectivity panels to assess the potential for off-target pharmacology (Table 8). […] The kinase off-target profile of The compound of Formula (III) was assessed in a full human wild-type panel using radiometric kinase activity assays (KinaseProfiler™ and IC50Profiler™; Eurofins Scientific) (Table 9; FIG. 23). The compound of Formula (III) inhibited 4/278 kinases >50% at 1 micromolar, identifying BTK and the three other kinases having analogous Cys residues with the potential for covalent inhibition (BMX, TEC, BLK). […]. The cellular kinase selectivity of The compound of Formula (III) was established in native Ramos B cell kinome assays (KiNativ™; ActivX) confirmed BTK as the primary target with inhibition of BLK and TEC inhibition detected (Table 10).

Beta2 (h) = Beta2 (h) (Homo sapiens, UniProt P07550); assay: Receptor panel, Study 2; type: binding
Beta2 (h), sequence (P07550 whole entry): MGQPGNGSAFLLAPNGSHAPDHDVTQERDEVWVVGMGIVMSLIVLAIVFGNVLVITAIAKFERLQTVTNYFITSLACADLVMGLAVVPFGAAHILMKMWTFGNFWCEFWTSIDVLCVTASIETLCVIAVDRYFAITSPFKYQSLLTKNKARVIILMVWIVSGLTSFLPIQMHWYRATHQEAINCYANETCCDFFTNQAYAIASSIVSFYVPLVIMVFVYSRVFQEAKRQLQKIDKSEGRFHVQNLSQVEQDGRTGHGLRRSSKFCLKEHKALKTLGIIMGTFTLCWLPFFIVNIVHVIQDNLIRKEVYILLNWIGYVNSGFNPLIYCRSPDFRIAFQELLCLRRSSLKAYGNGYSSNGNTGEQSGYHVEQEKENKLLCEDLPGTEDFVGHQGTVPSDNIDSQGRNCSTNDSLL
Protocol: as §1

NMDA = assay: Receptor panel, Study 2; type: binding
Protocol: as §1

AR (h) = AR (h) (Homo sapiens, UniProt P10275); assay: Receptor panel, Study 2; type: binding
Protocol: as §1

Ach (h) = Ach (h) (Homo sapiens, UniProt P22303); assay: Receptor panel, Study 2; type: binding
Protocol: as §1

GR (h) = GR (h) (Homo sapiens, UniProt P04150); assay: Receptor panel, Study 2; type: binding
GR (h), sequence (P04150 whole entry): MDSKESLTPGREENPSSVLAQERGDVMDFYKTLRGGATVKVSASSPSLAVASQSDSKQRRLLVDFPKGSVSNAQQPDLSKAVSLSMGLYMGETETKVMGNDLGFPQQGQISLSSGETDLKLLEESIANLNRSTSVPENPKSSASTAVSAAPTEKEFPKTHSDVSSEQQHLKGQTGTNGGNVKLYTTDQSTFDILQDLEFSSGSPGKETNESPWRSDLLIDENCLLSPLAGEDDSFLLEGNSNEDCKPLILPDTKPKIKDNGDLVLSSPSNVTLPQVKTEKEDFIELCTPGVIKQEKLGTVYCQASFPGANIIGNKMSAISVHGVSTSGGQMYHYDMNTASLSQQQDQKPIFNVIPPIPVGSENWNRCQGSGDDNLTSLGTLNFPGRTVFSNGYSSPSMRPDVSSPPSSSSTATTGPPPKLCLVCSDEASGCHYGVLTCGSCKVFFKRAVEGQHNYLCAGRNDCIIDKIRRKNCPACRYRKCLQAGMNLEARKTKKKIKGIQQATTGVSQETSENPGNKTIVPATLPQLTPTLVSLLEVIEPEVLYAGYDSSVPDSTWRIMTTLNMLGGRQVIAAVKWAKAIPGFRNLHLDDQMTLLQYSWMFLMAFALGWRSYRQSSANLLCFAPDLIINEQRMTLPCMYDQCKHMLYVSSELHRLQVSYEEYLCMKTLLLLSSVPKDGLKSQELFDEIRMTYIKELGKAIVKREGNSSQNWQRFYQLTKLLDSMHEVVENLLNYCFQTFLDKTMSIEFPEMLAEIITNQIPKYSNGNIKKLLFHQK
Protocol: as §1

Ca channel = assay: Receptor panel, Study 2; type: binding
Protocol: as §1

N neuronal α4β2 (h) = N neuronal α4β2 (h) (Homo sapiens, UniProt P17787+P43681); assay: Receptor panel, Study 2; type: binding
N neuronal α4β2 (h), sequence (P43681 29-627 limits assumed): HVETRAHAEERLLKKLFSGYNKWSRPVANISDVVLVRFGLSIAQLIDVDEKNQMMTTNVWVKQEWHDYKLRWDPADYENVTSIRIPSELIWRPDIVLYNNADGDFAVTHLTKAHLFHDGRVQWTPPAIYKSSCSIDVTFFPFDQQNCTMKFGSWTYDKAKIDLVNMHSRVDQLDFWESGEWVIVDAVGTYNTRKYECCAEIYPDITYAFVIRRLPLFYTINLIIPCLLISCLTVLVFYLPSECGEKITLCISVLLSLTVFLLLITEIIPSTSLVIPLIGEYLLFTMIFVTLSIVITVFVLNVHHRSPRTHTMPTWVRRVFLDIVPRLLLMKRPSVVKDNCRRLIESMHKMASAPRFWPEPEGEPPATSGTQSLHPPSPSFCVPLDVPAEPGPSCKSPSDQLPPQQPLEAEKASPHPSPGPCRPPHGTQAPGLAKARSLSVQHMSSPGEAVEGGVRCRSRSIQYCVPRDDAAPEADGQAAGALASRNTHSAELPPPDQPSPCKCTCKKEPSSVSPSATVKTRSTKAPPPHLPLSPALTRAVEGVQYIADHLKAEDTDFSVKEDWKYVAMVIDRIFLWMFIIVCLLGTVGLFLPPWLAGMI
N neuronal α4β2 (h), sequence (P17787 26-502): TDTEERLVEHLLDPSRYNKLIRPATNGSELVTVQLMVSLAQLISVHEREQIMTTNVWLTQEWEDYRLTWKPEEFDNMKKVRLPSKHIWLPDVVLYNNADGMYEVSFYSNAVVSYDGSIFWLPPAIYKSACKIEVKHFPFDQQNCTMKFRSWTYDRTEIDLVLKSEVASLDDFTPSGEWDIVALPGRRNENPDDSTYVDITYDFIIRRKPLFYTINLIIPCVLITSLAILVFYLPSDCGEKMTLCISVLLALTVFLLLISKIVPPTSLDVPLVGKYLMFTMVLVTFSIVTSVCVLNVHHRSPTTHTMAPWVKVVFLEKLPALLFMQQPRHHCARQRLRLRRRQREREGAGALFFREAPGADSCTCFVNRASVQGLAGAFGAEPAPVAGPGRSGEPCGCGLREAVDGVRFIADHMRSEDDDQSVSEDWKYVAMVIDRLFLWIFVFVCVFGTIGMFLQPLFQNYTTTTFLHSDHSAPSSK
Protocol: as §1

CB1 (h) = CB1 (h) (Homo sapiens, UniProt P21554); assay: Receptor panel, Study 2; type: binding
CB1 (h), sequence (P21554 whole entry): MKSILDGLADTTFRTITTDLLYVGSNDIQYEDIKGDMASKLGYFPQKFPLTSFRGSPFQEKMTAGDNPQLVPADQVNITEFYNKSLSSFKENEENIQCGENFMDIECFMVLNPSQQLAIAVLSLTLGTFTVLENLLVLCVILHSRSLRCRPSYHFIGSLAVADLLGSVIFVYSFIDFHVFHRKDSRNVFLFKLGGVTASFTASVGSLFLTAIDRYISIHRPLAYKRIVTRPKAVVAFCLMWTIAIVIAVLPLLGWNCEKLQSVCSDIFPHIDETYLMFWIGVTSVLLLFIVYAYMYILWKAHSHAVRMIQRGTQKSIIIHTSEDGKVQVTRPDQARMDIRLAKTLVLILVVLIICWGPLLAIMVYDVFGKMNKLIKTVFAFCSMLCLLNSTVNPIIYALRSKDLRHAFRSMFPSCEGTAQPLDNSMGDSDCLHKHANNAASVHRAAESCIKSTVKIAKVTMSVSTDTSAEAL
Protocol: as §1

PDE4D2 (h) = PDE4D2 (h) (Homo sapiens, UniProt Q08499); assay: Receptor panel, Study 2; type: binding
Protocol: as §1

MAO-A = MAO-A (Rattus norvegicus, UniProt P21396); assay: Receptor panel, Study 2; type: binding
MAO-A, sequence (P21396 whole entry): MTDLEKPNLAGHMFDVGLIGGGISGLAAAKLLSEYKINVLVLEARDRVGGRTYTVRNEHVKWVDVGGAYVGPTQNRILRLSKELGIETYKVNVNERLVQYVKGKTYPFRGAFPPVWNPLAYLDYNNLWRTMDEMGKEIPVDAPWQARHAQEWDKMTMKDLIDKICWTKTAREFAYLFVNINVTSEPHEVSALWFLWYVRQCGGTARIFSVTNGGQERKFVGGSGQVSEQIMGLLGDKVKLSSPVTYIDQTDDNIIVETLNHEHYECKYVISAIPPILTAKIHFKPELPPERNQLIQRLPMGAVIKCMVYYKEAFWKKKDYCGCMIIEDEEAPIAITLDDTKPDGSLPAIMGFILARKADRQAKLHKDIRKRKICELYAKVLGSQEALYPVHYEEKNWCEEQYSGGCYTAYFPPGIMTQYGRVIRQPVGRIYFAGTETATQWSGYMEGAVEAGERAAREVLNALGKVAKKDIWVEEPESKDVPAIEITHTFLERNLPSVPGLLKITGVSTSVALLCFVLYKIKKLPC
Protocol: as §1

PDE3A (h) = PDE3A (h) (Homo sapiens, UniProt Q14432); assay: Receptor panel, Study 2; type: binding
Protocol: as §1

mGluR5 (h) = mGluR5 (h) (Homo sapiens, UniProt P41594); assay: Receptor panel, Study 2; type: binding
mGluR5 (h), sequence (P41594 21-1212): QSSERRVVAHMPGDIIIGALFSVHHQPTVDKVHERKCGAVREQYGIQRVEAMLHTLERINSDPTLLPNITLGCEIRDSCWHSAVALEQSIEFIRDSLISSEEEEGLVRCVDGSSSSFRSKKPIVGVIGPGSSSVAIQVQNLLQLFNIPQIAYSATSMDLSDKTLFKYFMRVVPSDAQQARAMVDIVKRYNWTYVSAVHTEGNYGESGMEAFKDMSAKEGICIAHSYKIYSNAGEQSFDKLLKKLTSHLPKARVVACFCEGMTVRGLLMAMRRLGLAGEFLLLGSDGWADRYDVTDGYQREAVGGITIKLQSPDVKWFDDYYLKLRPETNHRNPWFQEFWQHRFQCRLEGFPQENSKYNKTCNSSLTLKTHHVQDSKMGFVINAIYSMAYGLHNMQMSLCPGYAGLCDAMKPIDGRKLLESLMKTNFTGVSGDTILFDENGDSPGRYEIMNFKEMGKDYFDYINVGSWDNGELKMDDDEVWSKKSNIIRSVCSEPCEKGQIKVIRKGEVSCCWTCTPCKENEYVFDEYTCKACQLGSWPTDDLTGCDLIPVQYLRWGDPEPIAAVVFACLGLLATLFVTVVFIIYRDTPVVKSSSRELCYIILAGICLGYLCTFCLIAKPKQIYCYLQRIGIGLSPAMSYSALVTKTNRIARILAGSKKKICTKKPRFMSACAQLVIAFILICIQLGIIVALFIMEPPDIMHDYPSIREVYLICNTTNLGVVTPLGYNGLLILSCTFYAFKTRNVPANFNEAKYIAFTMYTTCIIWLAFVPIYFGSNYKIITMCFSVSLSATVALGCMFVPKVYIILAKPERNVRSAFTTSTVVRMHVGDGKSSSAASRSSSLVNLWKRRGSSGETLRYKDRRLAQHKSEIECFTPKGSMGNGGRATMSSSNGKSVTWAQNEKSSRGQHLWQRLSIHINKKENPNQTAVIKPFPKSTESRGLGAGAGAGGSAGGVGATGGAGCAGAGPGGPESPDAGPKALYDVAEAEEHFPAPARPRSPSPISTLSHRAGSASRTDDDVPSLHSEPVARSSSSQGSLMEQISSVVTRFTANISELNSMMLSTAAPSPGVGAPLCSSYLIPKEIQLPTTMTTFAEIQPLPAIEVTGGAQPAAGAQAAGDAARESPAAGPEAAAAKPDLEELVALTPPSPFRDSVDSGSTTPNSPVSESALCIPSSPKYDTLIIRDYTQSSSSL
Protocol: as §1

CYP3A = assay: CYP induction in plated human hepatocytes, midazolam probe; type: in vitro ADME; details: 48 hours
Caco-2 = Caco-2 permeability; type: in vitro ADME; details: Caco-2, 5 μM
Protocol: (§2) In vitro Absorption, Distribution, Metabolism, and Excretion—The compound of Formula (III) was assessed at a concentration of 5 μM in cell permeability models.

Caco-2 permeability = type: in vitro ADME; details: human
Protocol: as §2

CB2 (h), sequence (P34972 whole entry): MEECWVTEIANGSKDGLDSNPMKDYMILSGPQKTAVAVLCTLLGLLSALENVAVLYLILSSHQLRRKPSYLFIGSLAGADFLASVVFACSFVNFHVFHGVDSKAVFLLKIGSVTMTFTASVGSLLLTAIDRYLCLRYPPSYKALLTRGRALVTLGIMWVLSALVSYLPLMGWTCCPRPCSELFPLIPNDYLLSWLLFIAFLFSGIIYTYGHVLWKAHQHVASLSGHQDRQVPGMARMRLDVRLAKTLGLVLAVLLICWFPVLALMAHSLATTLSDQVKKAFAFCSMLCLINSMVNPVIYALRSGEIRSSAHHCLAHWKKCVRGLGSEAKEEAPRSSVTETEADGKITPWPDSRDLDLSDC

SMILES: C=CC(=O)N[C@H]1CCC[C@H]1NC(=O)c1sc2nccc3c2c1NC(=O)N3c1cnc(CC(C)C)cc1C (atropisomer, axis not shown) [compound of Formula (III), N-((1R,2S)-2-Acrylamidocyclopentyl)-5-(S)-(6-isobutyl-4-methylpyridin-3-yl)-4-oxo-4,5-dihydro-3H-1-thia-3,5,8-triazaacenaphthylene-2-carboxamide]
- inhibition at 10 µM (CB2 (h)): < 10%
- inhibition at 10 µM (Beta2 (h)): < 10%
- % Inhibition at 10 μM (NMDA): — (no inhibition observed)
- inhibition at 10 µM (AR (h)): < 10%
- inhibition at 10 µM (Ach (h)): 11%
- inhibition at 10 µM (GR (h)): < 10%
- % Inhibition at 10 μM (Ca channel): — (no inhibition observed)
- inhibition at 10 µM (N neuronal α4β2 (h)): < 10%
- inhibition at 10 µM (CB1 (h)): < 10%
- inhibition at 10 µM (PDE4D2 (h)): < 10%
- inhibition at 10 µM (MAO-A): 14%
- inhibition at 10 µM (PDE3A (h)): < 10%
- inhibition at 10 µM (mGluR5 (h)): < 10%
- change in CYP3A enzyme activity (CYP3A; 1 μM): −0.8%
- change in CYP3A enzyme activity (CYP3A; 10 μM): 0.8%
- Papp A to B (Caco-2): 6.69 10^−6 cm/s
- Papp B to A (Caco-2): 54.9 10^−6 cm/s
- efflux ratio at 5 μM (Caco-2 permeability; Caco-2, read-out: Efflux Ratio (BA/AB)): 8.2
- Papp A→B at 5 μM (Caco-2 permeability; Caco-2, 5 μM): 6.69 ×10⁻⁶ cm/s
- Papp B→A at 5 μM (Caco-2 permeability; Caco-2, 5 μM): 54.9 ×10⁻⁶ cm/s
